According to article PMC13126677 (Journal of Medicinal Chemistry, 2026):
Values after ≈ are worked out from the molar mass of the structure shown.

What was measured:
[1] = system: SVMP activity of Calloselasma rhodostoma venom; details: read-out: Inhibition of SVMP enzymatic activity EC50 CRH; C. rhodostoma venom; mean of n ≥ 3, range in brackets
Method: (§1) Throughout our medicinal chemistry campaign, compounds were evaluated for their ability to inhibit enzymatic SVMP toxin activity in vitro using a previously described fluorescent-based substrate cleavage assay against five medically important viper venoms, namely Echis romani (Roman’s carpet viper, West Africa), Crotalus atrox (Western diamondback rattlesnake, North America), Calloselasma rhodostoma (Malayan pit viper, South East Asia), Bothrops jararaca (jararaca, South America) and Bitis arietans (puff adder, Africa).
(§2) Compounds of interest were stamped onto 384-well plates at a volume of 0.91 μL at a concentration of 1 mM in 100% DMSO (D2650, Sigma-Aldrich). Positive and negative control wells were stamped with 0.91 μL of 100% DMSO. To the test wells and the venom-only positive control wells, 15 μL of venom diluted to 0.066 μg/mL in PBS was added, giving a final amount of 1 μg/well. In the no venom negative control wells, 15 μL of PBS was added. The plates were then sealed, span briefly in a Platefuge (C2000, Benchmark Scientific) and incubated at 37 °C for 25 min to allow venom-inhibitor interaction. […] Dose response plates were conducted identically and the % inhibition values at each dose were used to draw EC50 curves to estimate the EC50 value of each compound tested. All SVMP experiments were repeated independently a minimum of three times.

[2] = system: SVMP activity of Bothrops jararaca venom; details: read-out: Inhibition of SVMP enzymatic activity EC50 BJA; B. jararaca venom; mean of n ≥ 3, range in brackets
Method: as §1, §2

physchem [3] = details: organic solvent / aqueous solvent at pH 7.4, pH 7.4
Method: (§3) The DMPK properties data described in the manuscript were measured via a high-throughput platform by AstraZeneca (United Kingdom).

[4] = system: SVMP activity of Crotalus atrox venom; details: read-out: Inhibition of SVMP enzymatic activity EC50 CAT; C. atrox venom; mean of n ≥ 3, range in brackets
Method: as §1, §2

in vitro [5] = details: human, microsomes
Method: as §3

in vitro [6] = details: rat, hepatocytes
Method: as §3

[7] = system: SVMP activity of Bitis arietans venom; details: read-out: Inhibition of SVMP enzymatic activity EC50 BAR; B. arietans venom; mean of n ≥ 3, range in brackets
Method: as §1, §2

[8] = system: SVMP activity of Echis romani venom; details: read-out: Inhibition of SVMP enzymatic activity EC50 ERO; E. romani venom; mean of n ≥ 3, range in brackets
Method: as §1, §2

physchem [9] = details: aqueous medium at pH 7.4, pH 7.4, aqueous buffer
Method: as §3

[10] = system: procoagulant activity of E. romani venom; details: read-out: Coagulation assay EC50 E. romani; 10 ng E. romani venom, citrated bovine plasma; mean of n ≥ 3, range in brackets
Method: (§4) This assay consists of preincubating venom (or venom vehicle control) at a species-specific dose with the compound of interest (or compound vehicle control), then adding citrated bovine plasma to the wells and activating the clotting cascade with calcium chloride. […] Compounds of interest were stamped onto 384-well plates at a volume of 0.5 μL and a concentration of 10 mM in 100% DMSO. Positive and negative control wells were stamped with 0.5 μL of 100% DMSO. To the test wells and the venom-only positive control wells, 10 μL of venom diluted to 1 μg/mL (E. romani) or 10 μg/mL (B. jararaca) in PBS was added, giving a final well amount of 10 ng (E. romani) or 100 ng (B. jararaca) per well. In the no venom negative control wells, 10 μL of PBS was added. The plates were then sealed, span briefly in a Platefuge and incubated at 37 °C for 25 min to allow venom-inhibitor interaction. While the plates were incubating, sufficient citrated bovine plasma (S0260, BioWest) to allow 20 μL/well was centrifuged at 3120 RCF for 5 min to remove any residual cellular debris and the supernatant was collected. The 384-well plates were removed from the incubator for 5 min to allow acclimation to room temperature, then 20 μL/well of 20 mM CaCl2 was added and immediately followed by the addition of 20 μL/well of centrifuged citrated bovine plasma, both via a Multidrop Combi reagent dispenser (5840330, Thermo Fisher Scientific). The plates were then read kinetically using an absorbance protocol on a CLARIOStar microplate reader at 595 nm for 60 min. […] Dose response plates were conducted identically and the % inhibition values at each dose were used to draw EC50 curves to estimate the EC50 value of each compound tested. All coagulation experiments were repeated independently a minimum of three times.

[11] = system: procoagulant activity of B. jararaca venom; details: read-out: Coagulation assay EC50 B. jararaca; 100 ng B. jararaca venom, citrated bovine plasma; mean of n ≥ 3, range in brackets
Method: as §4

Method for human plasma protein: as §3

| Compound | EC50 [1] [nM] | EC50 [2] [nM] | logD (physchem [3]) | EC50 [4] [nM] | microsomal CLint (in vitro [5]) [µL/min/mg] | hepatocyte CLint (in vitro [6]) [µL/min/1e6 cells] | EC50 [7] [nM] | EC50 [8] [nM] | Human Protein binding (%free) (human plasma protein) | solubility (physchem [9]) [µM] | EC50 [10] [nM] | EC50 [11] [nM] |
| --- | --- | --- | --- | --- | --- | --- | --- | --- | --- | --- | --- | --- |
| COc1ccc(S(=O)(=O)N2CCNC[C@@H]2C(=O)NO)cc1.Cl [compound 18, (R)-N-Hydroxy-1-((4-methoxyphenyl)sulfonyl)piperazine-2-carboxamide hydrochloride salt] | 83.3 | 56.1 | -0.2 | 69.3 | < 3 | 6.3 | 24.7 | 47.6 | 91 | 231 | – | – |
| COCCN1CCN(S(=O)(=O)c2ccc(Oc3ccc(OC)cc3)cc2)[C@@H](C(=O)NO)C1 [compound 17, (R)-N-Hydroxy-4-(2-methoxyethyl)-1-((4-(4-methoxyphenoxy)phenyl)sulfonyl)piperazine-2-carboxamide] | 11.9 | 209 | 1.9 | 31.1 | > 300 | 209 | 10.4 | 1.1 | 6.4 | 236 (≈ 110 µg/mL) | – | – |
| COc1ccc(S(=O)(=O)N2CCN(S(C)(=O)=O)C[C@@H]2C(=O)NO)cc1 [compound 19, (R)-N-Hydroxy-1-((4-methoxyphenyl)sulfonyl)-4-(methylsulfonyl)piperazine-2-carboxamide] | 62.9 | 20 | -0.3 | 45.3 | < 3 | 8.9 | 14.3 | 10.9 | 88 | < 1000 | 496 | 509 |
| COCCN1CCN(S(=O)(=O)c2ccc(Oc3ccc(OC(F)(F)F)cc3)cc2)[C@@H](C(=O)NO)C1 [compound 16, (R)-N-Hydroxy-4-(2-methoxyethyl)-1-((4-(4-(trifluoromethoxy)phenoxy)phenyl)sulfonyl)piperazine-2-carboxamide] | 79.3 | 856 | 2.9 | 76.9 | 8 | 65.6 | 27.8 | 15.9 | 3.0 | 437 (≈ 227 µg/mL) | – | – |
| COCCN1CCN(S(=O)(=O)c2ccc(Oc3ccc(Cl)cc3)cc2)[C@@H](C(=O)NO)C1 [compound 15, (R)-1-((4-(4-Chlorophenoxy)phenyl)sulfonyl)-N-hydroxy-4-(2-methoxyethyl)piperazine-2-carboxamide] | 22.5 | 232 | 2.4 | 47.9 | < 3 | > 300 | 19.9 | 7.9 | 2.3 | 431 (≈ 203 µg/mL) | – | – |
| COc1ccc(S(=O)(=O)N2CCN(S(=O)(=O)c3ccc(OC)cc3)[C@@H](C(=O)NO)C2)cc1 [compound 21, (R)-N-Hydroxy-1,4-bis((4-methoxyphenyl)sulfonyl)piperazine-2-carboxamide] | 58.8 | 18.2 | 1 | 32.5 | 10.2 | 199 | 10.6 | 15 | 30 | 25 (≈ 12.1 µg/mL) | 4590 | 3920 |
| COCCN1CCN(S(=O)(=O)c2ccc(Oc3ccc(C(F)(F)F)cc3)cc2)[C@@H](C(=O)NO)C1 [compound 28, (R)-N-Hydroxy-4-(2-methoxyethyl)-1-((4-(4-(trifluoromethyl)phenoxy)phenyl)sulfonyl)piperazine-2-carboxamide] | 95.9 | 1510 | 2.7 | 68.8 | 8.6 | 22.8 | 39.5 | 7.6 | 3.4 | 320 (≈ 161 µg/mL) | – | – |
